# US5763480A, “Inhibitors of cell-medicated disorders” (priority 1994, dated 1998)
# Read-outs that look alike come from different tables or passages of the source.
# Assays:
# cellular proton pump = test: Blocking of cellular proton pump by metal-chelate complexes / stopping of the block by chelating agents; conditions: for blocking of the cellular proton pump in combination with Tl or In: chelating agent combined with Tl or In
# bone resorption [1] = conditions: cited from earlier work
# [2] = test system: proton pump of the osteoclast ruffled membrane vesicles; format: biochemical; conditions: read-out: 50% effective concentration, inhibition of vesicle acidification, FIG. 3
# Source text: The effect of the metal-EDTA complexes on the proton pump of isolated osteoclast ruffled membrane vesicles was studied. For the study, the isolation, preparation and assay of the acidifying ruffled membrane vesicles were accomplished according to the procedures of Blair et al., J. Cell. Biochem., 48, 401-410 (1992).
# The y-axis indicates the acidification by the membranes in relation to the molar concentration of the test composition, as indicated on the x-axis.
# [3] = Solubility of Tl and In EDTA complexes versus halide salts in physiological saline; format: physicochemical; conditions: physiological saline / physiological solvents
# Source text: The pH of the resulting solutions was then raised to pH 7.0 and filtered to achieve sterility. […] The solubility characteristics of these Tl and In complexes were compared to the solubility characteristics of the respective halogen salts.
# bone resorption [4] = conditions: in vivo; cited from earlier work
# osteoclasts = test: Inhibition of osteoclast-mediated bone resorption in vitro (release of radiolabelled bone); format: cell-based, laying hens; conditions: read-out: 50% effective concentration, inhibition of bone resorption by osteoclasts in culture, FIG. 2, up to six days, labelled bone, 10,000 cells per well
# Protocol: Osteoclasts were isolated from calcium-deprived, laying hens, and metabolically radiolabelled bone was prepared therefrom (Blair et al., J. Cell Biol., 102, 1164-1172 (1986)). These osteoclasts were cultured in 24 well dishes at 10,000 cells per well, to which were added labelled bone and test compounds. The culture supernatants were assayed for released radioactivity for up to six days after the addition of the labelled bone.
# The y-axis indicates the percentage of the total radiolabelled bone that was released by osteoclast activity to the culture supernatant in response to varying the molar concentration (x-axis) of the various test compositions. […] The 50% effective concentrations of suramin and gallium nitrate were 700 nM and 2000 nM, respectively.
# [5] = test system: chloride channel and proton pump of ruffled membrane vesicles; test: Valinomycin reversal test distinguishing chloride channel and proton pump in ruffled membrane vesicles; format: biochemical; conditions: control measurement, 1 micromolar valinomycin
# Protocol: Because both the chloride channel and the proton pump are present in the ruffled membrane vesicles, the inhibition of acidification that was observed was possibly due to effects on either or both of these transporters. The effects of these two transporters were distinguished in other experiments by noting and using the differential effects of valinomycin on the chloride channel and proton pump in the presence of 120 mM K^+. This drug relieves the build-up of membrane potential yet permits proton transport.
# [6] = test system: osteoclast-mediated bone resorption; test: PTH stimulated bone resorption of rats in vivo, serum calcium (hypercalcemia model)
# Protocol: The ability of the metal-EDTA complexes to inhibit osteoclast-mediated bone resorption was tested on two groups of experimental rats treated to provide a hypercalcemia model (according to the procedures of Jaeger et al., Am. J. Physiol., 252, E790-E798 (1987)) as compared to two groups of untreated control rats. Experimental rats were surgically parathyroidectomized, and the effectiveness of the parathyroidectomy was gauged by determining the subject rats' serum calcium levels 72 hours post-surgery. A fall in calcium observed at that time reflected the decrease of bone resorption resulting from the removal of the parathyroid glands and the consequent decrease in circulating parathyroid hormone (PTH), a regulator of extra-cellular Ca^++ concentration. […] Serum calcium levels were determined after a 24-hour fast on the third day after the last drug administration and again two weeks later.
# All the animals in this study underwent the same two surgical procedures and received PTH via the implanted osmotic pump starting on day 3. […] After the two weeks were complete, serum calcium was determined again and compared to the earlier values and the controls. […]
compound,measurement,setting,value
"O=C(O)CN(CC(=O)O)[C@@H]1CCCC[C@H]1N(CC(=O)O)CC(=O)O (relative stereo) [CDTA, trans-1,2-diaminocyclohexane-N,N,N',N'-tetraacetic acid]",stopping of the proton pump-blocking effect by chelating agent,cellular proton pump; In(III) and Tl(III),stops the cellular proton pump-blocking effect
same,blocking of the cellular proton pump in combination with Tl or In,cellular proton pump,ineffective
[Al] [Aluminum],effect on bone calcium loss / bone resorption,"bone resorption [1]; gallium nitrate in humans, aluminum in accidental poisoning",inhibit bone resorption
"O=C(O)CN(CCN(CC(=O)O)CC(=O)O)CCN(CC(=O)O)CC(=O)O [DPTA, diethylenetriaminepentaacetic acid]",stopping of the proton pump-blocking effect by chelating agent,cellular proton pump; In(III) and Tl(III),stops the cellular proton pump-blocking effect
same,blocking of the cellular proton pump in combination with Tl or In,cellular proton pump,ineffective
"O=C(O)CN(CCN(CC(=O)O)CC(=O)O)CC(=O)O [EDTA, ethylenediaminetetraacetic acid]",suitability for stopping the effect,cellular proton pump; metal is Tl or In,not a suitable chelating agent for stopping the effect
"O=C(O)CN(CCOCCOCCN(CC(=O)O)CC(=O)O)CC(=O)O [EGTA, ethylene glycol bis (o-aminoethyl ether) N,N,N',N'-tetraacetic acid]",stopping of the proton pump-blocking effect by chelating agent,cellular proton pump; Ga(III),stops the cellular proton pump-blocking effect
same,blocking of the cellular proton pump in combination with Tl or In,cellular proton pump,ineffective
"[Ga] [Ga, gallium]",EC50,[2],300 µM
"[Tl] [Tl, thallium]",EC50,[2],30 µM
[Cl][Tl]([Cl])[Cl] [TlCl3],solubility (in words),[3],could not be prepared
O=P(O)(O)C(Cl)(Cl)P(=O)(O)O [clodronate],adverse effects,bone resorption [4],development of acute leukemia
same,efficacy on bone resorption and bone disease,bone resorption [4],"effective not only in Paget's disease, but also in the treatment of hypercalcemia and osteolytic bone disease"
CC(O)(P(=O)(O)O)P(=O)(O)O [etidronate],adverse effects,bone resorption [4],"impaired mineralization and thus, paradoxically, increased bone fragility"
same,efficacy on bone resorption and bone disease,bone resorption [4],effective inhibitor of bone resorption
O=[N+]([O-])[O-].O=[N+]([O-])[O-].O=[N+]([O-])[O-].[Ga+3] [gallium nitrate],adverse effects,bone resorption [1]; gallium compound treatment,"anemia, nausea and vomiting, and renal toxicity"
same,EC50,osteoclasts,2 µM
Cc1ccc(C(=O)Nc2ccc(S(=O)(=O)O)c3cc(S(=O)(=O)O)cc(S(=O)(=O)O)c23)cc1NC(=O)c1cccc(NC(=O)Nc2cccc(C(=O)Nc3cc(C(=O)Nc4ccc(S(=O)(=O)O)c5cc(S(=O)(=O)O)cc(S(=O)(=O)O)c45)ccc3C)c2)c1 [suramin],EC50,"osteoclasts; Osteoclast, 144 h",0.7 µM
CC(C)[C@@H]1NC(=O)[C@H](C)OC(=O)[C@@H](C(C)C)NC(=O)[C@@H](C(C)C)OC(=O)[C@H](C(C)C)NC(=O)[C@H](C)OC(=O)[C@@H](C(C)C)NC(=O)[C@@H](C(C)C)OC(=O)[C@H](C(C)C)NC(=O)[C@H](C)OC(=O)[C@@H](C(C)C)NC(=O)[C@@H](C(C)C)OC1=O [valinomycin],recovery of acidification after chloride channel inhibition,[5],recovered when 1 micromolar valinomycin was added
"PTH: synthetic PTH (BPTH 1-34 (i.e., rat peptide 1-34), purchased from Bachem California) (AVSEIQLMHNLGKHLASVERMQWLRKKLQDVHNF; Parathyroid hormone; UniProt P04089 32-65, looked up, fragment)",serum calcium (in words),"[6]; PTH without Tl-EDTA or In-EDTA, with or without parathyroid gland",elevated calcium concentrations
same,serum calcium level relative to pretreatment levels,"[6]; constant PTH by subcutaneous osmotic pump, parathyroidectomized rats",150%
